This note sets out measurements from PMC11642448, “Pheromone-Binding Protein 1 Performs a Dual Function for Intra- and Intersexual Signaling in a Moth” (International Journal of Molecular Sciences, 2024).

Experiment [1] concerns the target T1, AaenPBP1 (Agriphila aeneociliella, UniProt Z9SOT8HEE8).
T1 construct: mature protein without signal peptide (1-23 of 166 aa ORF); pET-15b with SUMO tag, His-tag Ni-NTA purification, E. coli BL21(DE3)
T1 sequence (Z9SOT8HEE8 24-166): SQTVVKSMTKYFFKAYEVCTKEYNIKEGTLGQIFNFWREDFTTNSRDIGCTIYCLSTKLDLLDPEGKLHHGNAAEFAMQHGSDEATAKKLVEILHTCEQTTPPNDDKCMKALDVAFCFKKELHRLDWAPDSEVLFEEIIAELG
In words: fluorescence titration, Scatchard analysis. The class given is binding.

The target in experiment [2] is T1, AaenPBP1. The experiment can be described thus: competitive fluorescence binding (1-NPN displacement).

Structures are written as SMILES.

With `c1ccc(Nc2cccc3ccccc23)cc1` [1-NPN], the affinity at AaenPBP1 [1], expressed as Kd, was 4.6 µM.
Regarding `CCCCCCCCC=O` [1-Nonanal], the Ki (in general, a dissociation constant, usually derived from enzyme kinetics or from competition with a known ligand) on AaenPBP1 [2] came to 7.04 µM.
For `CCCCCC/C=C\CCCCCCCCOC(C)=O` [(Z)-9-Hexadecenyl acetate], the Ki on AaenPBP1 [2] came to 1.72 µM.
